{"source": "paper PMC7365463", "about": "“Oxfendazole mediates macrofilaricidal efficacy against the filarial nematode Litomosoides sigmodontis in vivo and inhibits Onchocerca spec. motility in vitro” (PLoS Neglected Tropical Diseases, 2020)", "key": {"Acanthocheilonema viteae [1]": {"system": "Acanthocheilonema viteae", "parameters": "method as in Nogami 1987 (Ref. 13)", "conditions": "50L3 (SC), hamster, SC 10mg/kg 5 cons. days, 12 weeks p.i, necropsy 5 weeks p.t.; ref Nogami 1987 (Ref. 13); cited from earlier work"}, "Acanthocheilonema viteae [2]": {"system": "Acanthocheilonema viteae", "parameters": "method as in Denham 1980 (Ref. 6)", "conditions": "80L3, jirds, SC 100mg/kg 5 cons. days, ref Denham 1980 (Ref. 6), cited from earlier work"}, "Brugia pahangi": {"system": "Brugia pahangi", "conditions": "100L3 (SC), cats, SC 100-400mg/kg x1, patent phase, necropsy 46-51 days p.t.; ref Denham 1979 (Ref. 4); cited from earlier work"}, "Breinlia booliati": {"system": "Breinlia booliati", "parameters": "method as in Mak 1981 (Ref. 7)", "conditions": "100L3 (SC), rats, SC 3mg/kg 5 cons. days, patent phase, necropsy 4 weeks p.t.; ref Mak 1981 (Ref. 7); cited from earlier work"}, "[3]": {"parameters": "method as in PMID 25701764", "conditions": "rat, published data; cited from earlier work"}, "[4]": {"parameters": "method as in PMID 30745383", "conditions": "daily doses up to 60 mg/kg; cited from earlier work"}, "mouse lymphoma assay": {"system": "mouse lymphoma assay", "parameters": "method as in earlier work", "conditions": "in vitro; cited from earlier work"}, "[5]": {"parameters": "method as in earlier work", "conditions": "in vivo, lack of potential for aneuploidy; cited from earlier work"}, "[6]": {"system": "Litomosoides sigmodontis adult worms", "assay": "L. sigmodontis-infected mice, adult worm burden", "type": "in vivo", "description": "(Whatman 903 Protein […], Sigma-Aldrich, Germany). […] Mice were sacrificed at 75-78 dpi. […] The mice were anesthetized then sacrificed by bleeding (at MNHN) or by an overdose of isoflurane (at IMMIP). At the MNHN, the pleural cavity was washed 10 times with 1 ml of cold phosphate buffered saline (PBS) to collect filariae as previously described. At the IMMIP, the pleural cavity was washed with 1 ml of PBS. In both laboratories the remaining worms were isolated using forceps. The recovered L. sigmodontis adult worms were counted and analyzed by light microscopy to identify males and females."}, "mammalian tubulin": {"system": "mammalian tubulin", "parameters": "method as in PMID 6712717, PMID 1554382", "conditions": "cited from earlier work"}, "Onchocerca lupi": {"system": "Onchocerca lupi", "parameters": "method as in PMID 29377880", "conditions": "Onchocerca lupi-infected dogs; cited from earlier work"}, "[7]": {"assay": "Plasma pharmacokinetics in mice (oral and subcutaneous)", "type": "in vivo, BALB/c mice", "conditions": "for AUC(0-t) / Cmax / Tmax / half-life: female, BALB/c, mouse, plasma", "description": "Female BALB/c mice (6 to 9-weeks old) were used to determine the plasma concentrations of oxfendazole. Animals were allocated to groups of three animals per dose, such that the mean weight of animals in each group was similar. All animals had access to a certified rodent diet (Beijing Keao […] Co, Ltd) and water ad libitum. In this study, all animals were fasted 12 h before dosing and returned to food 4 h post dose. Commercially available oxfendazole (Sigma Aldrich and Dolthene, Merial) was administered to animals. […] A commercially available formulation of oxfendazole, Dolthene, was diluted in corn oil and administered by oral gavage. After administration of the drug substances by oral gavage, blood samples were collected from each animal via the saphenous or mandibular veins at 0.25, 0.5, 1, 2, 4, 8, 12 and 24 h post dosing. For administration via the sc route, samples were collected from each animal 1, 3, 6, 9, 12, 18, 24, 36, 48, 72, 96, and 120 h post dosing. All samples were transferred into plastic tubes containing K2-EDTA (0.5 M) as an anti-coagulant and stored on ice until plasma preparation by centrifugation at 5°C (3000 g, 15 min). Analysis was conducted by LC-MS/MS (API 4000). Mobile phases were mixtures of acetonitrile (ACN) and water to which formic acid and 1 mM NH4OAc were added (0.025%, v/v). The ratio ACN/water was 5:95 (v/v) in the mobile phase A and 95:5 (v/v) in the mobile phase B. […] Electrospray positive ionization with selected ion MS/MS monitoring was used for the determination of oxfendazole: m/z 316.0/159.1."}, "[8]": {"assay": "Bioavailability in dog (in-house)", "conditions": "in vivo, oral, in-house data at high dose of 25 mg/kg, read-out: Bioavailability (F)", "from_the_text": "Table 1 Human pharmacokinetic prediction for oxfendazole."}, "[9]": {"conditions": "mice, PO 2 x 2.5 mg/kg for 1 day, start 33 dpi, 75 dpi"}, "[10]": {"conditions": "mice, PO 2 x 2.5 mg/kg for 5 days, start 33 dpi, 75 dpi"}, "[11]": {"conditions": "mice, PO 2 x 2.5 mg/kg for 10 days, start 33 dpi, 75 dpi"}, "[12]": {"conditions": "mice, PO BID 2 x 1 mg/kg for 5 days from 35 dpi, necropsy 75 dpi"}, "[13]": {"conditions": "mice, PO BID 2 x 5 mg/kg for 5 days from 35 dpi, necropsy 75 dpi"}, "[14]": {"conditions": "PO, nominal dose 5 mg/kg (administered 4.8)"}, "[15]": {"conditions": "PO, nominal dose 25 mg/kg (administered 26.3)"}, "[16]": {"conditions": "SC, nominal dose 1 mg/kg (administered 1.0)"}, "[17]": {"conditions": "SC, nominal dose 25 mg/kg (administered 27.5)"}}, "note": "Read-outs that look alike come from different tables or passages of the source."}
{"compound": "COC(=O)Nc1nc2cc(C(=O)c3ccc(F)cc3)ccc2[nH]1", "note": "[flubendazole]", "values": [{"measurement": "Reduction of worm burden", "setting": "Acanthocheilonema viteae [1]", "value": 68, "unit": "%"}, {"measurement": "Reduction of worm burden", "setting": "Acanthocheilonema viteae [2]; 6 to 10 days p.i., necropsy 73-75 days p.t.", "value": 100, "unit": "%"}, {"measurement": "Reduction of worm burden", "setting": "Acanthocheilonema viteae [2]; 42-46 days p.i., necropsy 39-40 days p.t.", "value": 100, "unit": "%"}, {"measurement": "Reduction of worm burden", "setting": "Brugia pahangi", "value": 100, "unit": "%"}, {"measurement": "Reduction of worm burden", "setting": "Breinlia booliati", "value": 100, "unit": "%"}]}
{"compound": "COC(=O)Nc1nc2ccc([S+]([O-])c3ccccc3)cc2[nH]1", "note": "(stereo not drawn) [oxfendazole]", "values": [{"measurement": "Bioavailability (F)", "setting": "[3]", "value": "~35", "unit": "%"}, {"measurement": "tolerability in healthy volunteers", "setting": "[4]", "value": "acceptable side effects"}, {"measurement": "toxicity in mouse lymphoma assay", "setting": "mouse lymphoma assay", "value": "did not exhibit toxicity"}, {"measurement": "rat micronucleus assay outcome", "setting": "[5]", "value": "confirmed the in vitro results"}, {"measurement": "minimal efficacious concentration", "setting": "[6]; based on subcutaneous treatment at 25 mg/kg in mice, pharmacokinetic analysis", "value": "approximately 100 ng/ml"}, {"measurement": "macrofilaricidal efficacy", "setting": "[6]; mice, BID oral 2 x 5.0 mg/kg for 10 consecutive days", "value": "above 85%"}, {"measurement": "macrofilaricidal efficacy", "setting": "[6]; mice, BID oral 2 x 12.5 mg/kg for 5 days", "value": "above 85%"}, {"measurement": "median adult worms", "setting": "[6]; [9]", "value": 20, "unit": "worms"}, {"measurement": "range of adult worms", "setting": "[6]; [9]", "value": "1–47 worms"}, {"measurement": "reduction of the adult worm burden", "setting": "[6]; [9]", "value": 0, "unit": "%"}, {"measurement": "median adult worms", "setting": "[6]; [10]", "value": 6.5, "unit": "worms"}, {"measurement": "range of adult worms", "setting": "[6]; [10]", "value": "1–16 worms"}, {"measurement": "reduction of the adult worm burden", "setting": "[6]; [10]", "value": 23.5, "unit": "%"}, {"measurement": "median adult worms", "setting": "[6]; [11]", "value": 1, "unit": "worm"}, {"measurement": "range of adult worms", "setting": "[6]; [11]", "value": "0–4 worms"}, {"measurement": "reduction of the adult worm burden", "setting": "[6]; [11]", "value": 87.2, "unit": "%"}, {"measurement": "adult worm burden reduction", "setting": "[6]; [12]", "value": 16.7, "unit": "%"}, {"measurement": "median adult worms", "setting": "[6]; [12]", "value": 5, "unit": "adult worms"}, {"measurement": "range of adult worms", "setting": "[6]; [12]", "value": "1–12 worms"}, {"measurement": "adult worm burden reduction", "setting": "[6]; [13]", "value": 100, "unit": "%"}, {"measurement": "median adult worms", "setting": "[6]; [13]", "value": 0, "unit": "adult worms"}, {"measurement": "range of adult worms", "setting": "[6]; [13]", "value": "0–5 worms"}, {"measurement": "adult worm reduction", "setting": "[6]; mice, PO BID 2 x 12.5 mg/kg for 5 days from 35 dpi, necropsy 78 dpi", "value": 100, "unit": "%"}, {"measurement": "adult worm burden reduction", "setting": "[6]; mice, PO BID 2 x 25 mg/kg for 5 days from 35 dpi, necropsy 75 dpi", "value": 100, "unit": "%"}, {"measurement": "macrofilaricidal outcome", "setting": "[6]; mice, SC 1 mg/kg QD for 5 days from 35 dpi, necropsy 78 dpi", "value": "no significant reduction of the worm burden"}, {"measurement": "macrofilaricidal outcome", "setting": "[6]; mice, SC 5 mg/kg QD for 5 days from 35 dpi, necropsy 78 dpi", "value": "sterile cure was achieved in all mice except one"}, {"measurement": "macrofilaricidal outcome", "setting": "[6]; mice, SC 25 mg/kg QD for 5 days from 35 dpi, necropsy 78 dpi", "value": "Sterile cure was achieved"}, {"measurement": "macrofilaricidal outcome", "setting": "[6]; mice, single oral BID dosing, doses up to 125 mg/kg, start 33 dpi, 75 dpi", "value": "did not lead to a significant reduction"}, {"measurement": "affinity to mammalian tubulin", "setting": "mammalian tubulin", "value": "weak affinity"}, {"measurement": "dermal microfilariae numbers", "setting": "Onchocerca lupi", "value": "no significant decrease in dermal microfilariae numbers"}, {"measurement": "Cmax oral versus sc", "setting": "[7]; 25 mg/kg, higher in the oral treated group", "value": "about 6 times"}, {"measurement": "AUC(0-t)", "setting": "[7]; [14]", "value": 14700, "unit": "ng·h/mL"}, {"measurement": "Cmax", "setting": "[7]; [14]", "value": 2530, "unit": "ng/mL"}, {"measurement": "Tmax", "setting": "[7]; [14]", "value": 1.67, "unit": "h"}, {"measurement": "half-life", "setting": "[7]; PO, nominal dose 5 mg/kg (administered 4.8), read-out: T1/2 (converted)", "value": 2.87, "unit": "h"}, {"measurement": "AUC(0-t)", "setting": "[7]; [15]", "value": 50300, "unit": "ng·h/mL"}, {"measurement": "Cmax", "setting": "[7]; [15]", "value": 8590, "unit": "ng/mL"}, {"measurement": "Tmax", "setting": "[7]; [15]", "value": 2, "unit": "h"}, {"measurement": "half-life", "setting": "[7]; PO, nominal dose 25 mg/kg (administered 26.3), read-out: T1/2 (converted)", "value": 1.87, "unit": "h"}, {"measurement": "AUC(0-t)", "setting": "[7]; [16]", "value": 1280, "unit": "ng·h/mL"}, {"measurement": "Cmax", "setting": "[7]; [16]", "value": 131, "unit": "ng/mL"}, {"measurement": "Tmax", "setting": "[7]; [16]", "value": 1.67, "unit": "h"}, {"measurement": "half-life", "setting": "[7]; SC, nominal dose 1 mg/kg (administered 1.0), read-out: T1/2 (converted)", "value": 24.8, "unit": "h"}, {"measurement": "AUC(0-t)", "setting": "[7]; [17]", "value": 20800, "unit": "ng·h/mL"}, {"measurement": "Cmax", "setting": "[7]; [17]", "value": 1450, "unit": "ng/mL"}, {"measurement": "Tmax", "setting": "[7]; [17]", "value": 2.33, "unit": "h"}, {"measurement": "half-life", "setting": "[7]; SC, nominal dose 25 mg/kg (administered 27.5), read-out: T1/2 (converted)", "value": 76, "unit": "h"}, {"measurement": "Cmax", "setting": "[7]; oral administration of 5 mg/kg", "value": 8, "unit": "µM"}, {"measurement": "Cmax", "setting": "[7]; oral administration of 25 mg/kg", "value": 27, "unit": "µM"}, {"measurement": "Tmax", "setting": "[7]; other: oral and sc, all groups (oral and sc)", "value": "~2", "unit": "h"}, {"measurement": "half-life", "setting": "[7]; other: oral and sc, both routes of administration, read-out: half-life T1/2 during the first 12 h (converted)", "value": "~2", "unit": "h"}, {"measurement": "AUC0-last oral versus sc", "setting": "[7]; higher when administered orally", "value": 2.4, "unit": "times"}, {"measurement": "terminal half-life sc versus T1/2 by oral route", "setting": "[7]; terminal phase starting 12 h after dosing, longer for sc", "value": "~40", "unit": "times"}, {"measurement": "Half-Life (HL), via predicted Vss/CL", "setting": "human", "value": 14.4, "unit": "h"}, {"measurement": "Half-Life (HL), dog-hum correlation", "setting": "human prediction", "value": 4.2, "unit": "h"}, {"measurement": "Half-Life (HL), rat-hum correlation", "setting": "human prediction", "value": 12.1, "unit": "h"}, {"measurement": "predicted human clearance as share of liver blood flow", "setting": "human prediction", "value": "~ 2 % liver blood flow"}, {"measurement": "bioavailability", "setting": "[8]", "value": "~10", "unit": "%"}]}
